Data taken from patent publication US20080085879A1, “METHODS OF TREATING ESTROGEN-RESPONSIVE CONDITIONS BY ORPHAN NUCLEAR RECEPTOR ACTIVATION” (University of Pittsburgh - Of the Commonwealth System of …, priority 2006, published 2008).
“Also recorded” adds a separate entry of the source. Blank lines part the entries; values can stand above or below the molecule they belong to.

Assays:
[1] = test system: estrogen sulfotransferase (EST); assay: EST mRNA expression in mouse tissues (Northern blot, real-time PCR) after agonist treatment; format: in vivo; conditions: for EST mRNA expression in liver: wild-type mice, compared to control (DMSO)
Description: Transgenic mice, having a mixed background of C57BL/6J and 129/SvImJ, were created expressing activated LXRa in the liver under the control of the fatty acid binding protein (FABP) promoter. (FIG. 1) EST levels in liver cells of the transgenic mice were compared to wild-type mice using Northern blot analysis and real-time PCR, as described in Gong, H. et al. Mol. Endocrinol. 20:279-290 (2006) and Zhou, J. et al. J Biol Chem. 281: 15013-15020 (2006), respectively.
Wild-type mice were treated with LXR agonists TO1317 (T0901317) or 22(R)-hydroxycholesterol (FIG. 1a), and EST levels were compared to DMSO-treated control mice as described above.
LXRα and LXRβ double knockout (LXR DKO) mice were created as described in Peet, D. J. et al., Cell 93:693-704 (1998).

EST = EST mRNA expression in primary human hepatocytes (RT-PCR); format: cell-based; conditions: compared to DMSO control
Description: Expression of EST MRNA was measured as described above in human hepatocytes and in human breast cancer line MCF7.

CYP3A (PXR target gene) = assay: CYP3A expression in mouse liver (Northern blot); format: in vivo
[2] = test system: uterine epithelial proliferation; assay: Uterine estrogen response: epithelial proliferation by BrdU labeling in ovariectomized mice; format: in vivo, mouse
[3] = test system: estrogen-responsive uterine genes (Pgr, c-fos, Igf-1, Txnip); assay: Estrogen-responsive uterine gene expression by real-time PCR in ovariectomized mice; format: in vivo, mouse
LXRα = molecular target: T1, LXRα (Mus musculus, UniProt Q9Z0Y9); assay: mEst promoter luciferase reporter assay in HepG2 cells co-transfected with LXRα; format: cell-based; conditions: TO1317 10 μM 24 h
T1 construct: expressed in transfected cells; host or cells: HepG2
T1 sequence (Q9Z0Y9 1-445): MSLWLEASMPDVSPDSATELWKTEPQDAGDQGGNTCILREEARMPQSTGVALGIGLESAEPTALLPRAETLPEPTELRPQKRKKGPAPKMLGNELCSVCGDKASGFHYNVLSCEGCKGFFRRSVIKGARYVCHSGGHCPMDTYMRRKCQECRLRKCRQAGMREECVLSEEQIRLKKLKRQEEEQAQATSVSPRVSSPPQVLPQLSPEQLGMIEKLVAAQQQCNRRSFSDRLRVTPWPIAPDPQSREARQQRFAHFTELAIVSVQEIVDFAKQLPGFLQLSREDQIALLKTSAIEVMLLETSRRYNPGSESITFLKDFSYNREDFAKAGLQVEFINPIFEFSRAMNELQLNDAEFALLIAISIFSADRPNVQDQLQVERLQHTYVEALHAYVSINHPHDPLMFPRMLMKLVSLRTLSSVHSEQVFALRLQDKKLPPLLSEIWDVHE
Excerpt: (§1) The 4.2-kb (−4164 bp to +46 bp) 5′ regulatory sequences of the mEst gene were cloned by PCR using a template of mEst-containing bacterial artificial chromosome (BAC) clone (ID RP24-571N6) from the Children's Hospital Oakland Research Institute BACPAC Resource Center (Oakland, Calif.). Deletion mutants were generated by PCR-mediated mutagenesis. HepG2 cells were transfected with the reporter constructs and LXRα expression vector in 48-well plates as previously described . Gong, H. et al., Mol. Endocrinol. 20:279-290 (2006) When necessary, cells were treated with TO1317 (10 μM) for 24 h prior to luciferase assay. The transfection efficiency was normalized against the β-gal activities from a co-transfected CMX-β gal vector. The hydrodynamic liver transfection was performed as we previously described. Zhou, J. et al. J Biol Chem. 281: 15013-15020 (2006). EMSA were performed using in vitro transcribed and translated proteins as described previously. Saini, S. P. et al., Hepatology 41:497-505 (2005)

mouse LXRα = molecular target: T2, mouse LXRα (Mus musculus, UniProt Q9Z0Y9); assay: CHIP assay of HA-LXRα recruitment onto the Est promoter in transfected mouse liver; format: in vivo; conditions: wild type mouse liver, TO1317 50 mg/kg i.p.
T2 construct: expressed in transfected cells; host or cells: liver of wild type mice (hydrodynamic transfection in vivo)
T2 sequence (Q9Z0Y9 1-445): T1 sequence (Q9Z0Y9 1-445)
Excerpt: Zhou, J. et al. J Biol Chem. 281: 15013-15020 (2006). […] Zhou, J. et al. J Biol Chem. 281: 15013-15020 (2006).

[4] = test system: mEst 2.1-kb natural promoter; assay: Hydrodynamic liver transfection of Est promoter reporter; format: in vivo
Excerpt: as §1

[5] = MCF-7/VEGF breast tumor xenograft in ovariectomized nude mice; format: in vivo, mouse
Excerpt: (§2) Ovariectomized nude mice were purchased from Taconic (Germantown, N.Y.). ER-positive and estrogen responsive breast cancer MCF-7 cells were used. The MCF-7 cells were MCF-7/VEGF cells that overexpress the vascular endothelial growth factor (VEGF), rather than parent MCF-7 cells. […] Guo, P. et al., Cancer Res. 63:4684-4691 (2003).
(§3) MCF-7 breast tumors were established in the mammary fat pads of ovariectomized female nude mice as described previously. Briefly, 1×10^7 of MCF-7/VEGF cells were inoculated into the mammary fat pads of 8-week old ovariectomized female nude mice that were implanted with E2 pellets (0.72 mg/60-day release) or placebo pellets (Innovative Research of America, Sarasota, Fla.). The E2-treated mice were randomly divided into two groups, with one group receiving daily treatment of TO1317 (15 mg/kg by gavage) and the other receiving vehicle. The volumes of the tumors were measured using a caliper every five days. Mice were labeled with BrdU 30 min prior to sacrificing. The serum concentrations of E2 were measured using the ACTIVE® ESTRADIOL EIA kit (Diagnostic Systems Laboratories, Webster, Tex.).
(§4) Breast tumors were established as described in Example 4, using MCF-7/VEGF cells.

MCF-7/VEGF cells = assay: as above; format: in vivo, mouse
Excerpt: as §2, §3, §4

uterus = assay: Uterotropic bioassay; format: in vivo, mouse; conditions: wild type female mice, E2 5 μg/kg s.c. daily for 3 d
Description: Ovariectomized wild type and VP-LXRα transgenic females were subjected to uterine estrogen response measurements that include epithelial proliferation by BrdU labeling and estrogen responsive gene expression by real-time PCR. Five-week old virgin females were subjected to ovariectomies. Seven days after the surgery, mice were given a single s.c. injection of 17β-estradiol (E2) (25 μg/mouse). 18 h after the E2 injection, mice were given a single i.p. injection of bromodeoxyuridine (BrdU) (60 mg/kg) and sacrificed 2 h after. One uterine horn was harvested for histology and measurement of cell proliferation by BrdU immunostaining (Xie, W., et al., Mol. Endocrinol. 11: 1766-1781 (1997)) and the other was harvested for RNA extraction and gene expression analysis by real-time PCR. In the uterotropic bioassay, 3-week-old virgin female mice received daily s.c. injections of vehicle or E2 (5 μg/kg) for 3 d. Mice were then sacrificed 24 h after the last E2 dose and the uteri were dissected, weighed, and photographed. When necessary, mice were subjected to daily treatment of TO1317 (50 mg/kg, i.p. injection) starting 3 d prior to the E2 treatment and continued until the completion of the experiments.

[6] = ovariectomized wild type female mice

EST expression in PXR−/− mice ([1]; PXR−/− mice, liver): still induced
EST mRNA induction in human hepatocytes (EST): increased induction
SMILES: C[C@@H]1C[C@H]2[C@@H]3CCC4=CC(=O)C=C[C@]4(C)[C@@]3(F)[C@@H](O)C[C@]2(C)[C@@]1(O)C(=O)CO [dexamethasone]

SMILES: CC(=O)[C@H]1[C@H](C#N)C[C@H]2[C@@H]3CC=C4C[C@@H](O)CC[C@]4(C)[C@H]3CC[C@@]21C [PCN, pregnenolone-16alpha-carbonitrile]
CYP3A expression (CYP3A (PXR target gene)): induced

EST levels in LXR DKO mice ([1]; LXRα and LXRβ double knockout mice, compared with control mice): no increase
EST expression in testis ([1]; testis of male mice): not observed
EST mRNA expression in liver [1]: up-regulated
activation of mutant variant of tk-Est/DR-4 reporter (LXRα; LXRα): not
activation of tk-Est/DR-4 reporter (LXRα; LXRα): activated
activation of 4.2-kb mEst promoter luciferase reporter (LXRα; wild type LXRα): activated
recruitment of HA-LXRα onto the Est promoter (CHIP) (mouse LXRα): resulted in the recruitment
SMILES: O=S(=O)(c1ccccc1)N(CC(F)(F)F)c1ccc(C(O)(C(F)(F)F)C(F)(F)F)cc1 [TO1317]
TO1317 effect on the E2 response (BrdU labeling) in EST null mice ([2]; EST null mice): abolished
E2 effect on uterine BrdU labeling ([2]; ovariectomized wild type mice, TO1317 50 mg/kg i.p. daily pre-treatment, E2 25 μg/mouse s.c.): compromised
basal proliferation (BrdU labeling) ([2]; treatment alone, in the absence of E2): little effect
TO1317 effect on E2-responsive gene expression in EST null mice ([3]; EST null mice, uterus): abolished
E2 effects on the expression of E2-responsive genes (Pgr, c-fos, Igf-1, Txnip) ([3]; TO1317-treated ovariectomized wild type mice, uterus): abolished
activation of 2.1-kb natural Est promoter transfected into mouse liver [4]: activated
hepatic EST expression in nude mice ([5]; TO1317-treated vs mock-treated nude mice (data not shown)): significantly induced
circulating E2 levels ([5]; tumor bearing mice, TO1317 15 mg/kg by gavage daily): decreased
tumor cell BrdU labeling index (MCF-7/VEGF cells; E2-induced tumors, TO1317 15 mg/kg by gavage daily): decreased
E2-enhanced tumor growth (tumor volume) (MCF-7/VEGF cells; E2 pellets, TO1317 15 mg/kg by gavage daily vs vehicle, 15 mg/kg): inhibited; also recorded: significantly attenuated

SMILES: CC(C)CC[C@@H](O)[C@@H](C)[C@H]1CC[C@H]2[C@@H]3CC=C4C[C@@H](O)CC[C@]4(C)[C@H]3CC[C@]12C [22(R)-hydroxycholesterol]
EST mRNA expression in liver [1]: up-regulated

SMILES: C[C@]12CC[C@@H]3c4ccc(O)cc4CC[C@H]3[C@@H]1CC[C@@H]2O [E2, 17β-estradiol]
uterine BrdU labeling ([2]; ovariectomized wild type mice, E2 25 μg/mouse s.c.): increased
mRNA expression of Pgr, c-fos and Igf-1 in uterus [3, 6]: induced
mRNA expression of Txnip in uterus [3, 6]: suppressed
uterotropic effect (uterine enlargement, water imbibition) (uterus): typical uterine enlargement
